# Target: T1, human GPBAR1 receptor (Homo sapiens, UniProt Q8TDU6)
# T1 construct: expressed in transfected cells
# T1 sequence (Q8TDU6 1-330): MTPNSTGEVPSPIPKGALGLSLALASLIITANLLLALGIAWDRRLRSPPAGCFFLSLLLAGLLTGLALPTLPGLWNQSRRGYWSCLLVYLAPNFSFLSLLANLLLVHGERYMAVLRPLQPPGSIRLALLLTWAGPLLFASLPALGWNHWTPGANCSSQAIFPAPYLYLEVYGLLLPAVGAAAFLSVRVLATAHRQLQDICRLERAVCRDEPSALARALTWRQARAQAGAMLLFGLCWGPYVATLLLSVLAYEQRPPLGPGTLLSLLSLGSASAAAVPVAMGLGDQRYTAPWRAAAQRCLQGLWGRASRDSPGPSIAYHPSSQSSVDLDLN
# Assay: functional cAMP assay in CHO-dhfr(minus) cells expressing human GPBAR1 receptors
# Format: cell-based
# Conditions: cAMP increase (TR-FRET) in CHO-dhfr(minus) cells expressing human GPBAR1; compounds incubated 30 min at 30° C.
# Procedure: The final clone was verified by DNA sequence analysis. The plasmid was transfected into CHO cells deficient in dihydrofolate reductase activity (CHO-dhfr-) using Lipofectamine plus (Invitrogen). Clones were isolated in limited dilution conditions and identified by activities in the cAMP assay using lithocholic acid as agonist.
# The growth medium was exchanged with Krebs Ringer Bicarbonate buffer with 1 mM IBMX and incubated at 30° C. for 30 mM. Compounds were added to a final assay volume of 100 μl and incubated for 30 min at 30° C. […] The time-resolved energy transfer is measured by a TRF reader (Evotec Technologies GmbH, Hamburg Germany), equipped with a ND:YAG laser as excitation source. The plate is measured twice with the excitation at 355 nm and at the emission with a delay of 100 ns and a gate of 100 ns, total exposure time 10s at 730 (bandwith 30 nm) or 645 nm (bandwith 75 nm), respectively.
# EC50 values were determined using Activity Base analysis (ID Business Solution, Limited). […] Specificity for GPBAR1 was tested in non-transfected CHO cells in the same assay as above.
row,EC50,Compound
1,127 nM,"O=C(c1cccnc1Oc1ccc(F)c(Cl)c1)N1CCCc2cc(F)c(F)cc21 [Example 79, [2-(3-Chloro-4-fluoro-phenoxy)-pyridin-3-yl]-(6,7-difluoro-3,4-dihydro-2H-quinolin-1-yl)-methanone]"
2,630 nM,"CC1CCc2ccccc2N1C(=O)c1cc(F)cnc1Oc1cc(Cl)ccc1Cl (stereo not shown) [Example 80, [2-(2,5-Dichloro-phenoxy)-5-fluoro-pyridin-3-yl]-(2-methyl-3,4-dihydro-2H-quinolin-1-yl)-methanone]"
3,78 nM,"O=C(c1cc(F)cnc1Oc1cc(Cl)ccc1Cl)N1CCOc2ccccc21 [Example 81, [2-(2,5-Dichloro-phenoxy)-5-fluoro-pyridin-3-yl]-(2,3-dihydro-benzo[1,4]oxazin-4-yl)-methanone]"
4,1270 nM,"O=C1CCCN(C(=O)c2cc(F)cnc2Oc2cc(Cl)ccc2Cl)c2ccccc21 [Example 82, 1-[2-(2,5-Dichloro-phenoxy)-5-fluoro-pyridine-3-carbonyl]-1,2,3,4-tetrahydro-benzo[b]azepin-5-one]"
5,13 nM,"O=C(c1cc(F)cnc1Oc1cc(Cl)ccc1Cl)N1CCCc2ccccc21 [Example 83, [2-(2,5-Dichloro-phenoxy)-5-fluoro-pyridin-3-yl]-(3,4-dihydro-2H-quinolin-1-yl)-methanone]"
6,686 nM,"CCN(C(=O)c1cc(F)cnc1Oc1cc(Cl)ccc1Cl)c1ccccc1 [Example 84, 2-(2,5-Dichloro-phenoxy)-N-ethyl-5-fluoro-N-phenyl-nicotinamide]"
7,231 nM,"O=C(c1cc(F)cnc1Oc1cccc(Cl)c1)N1CCCc2cc(F)c(F)cc21 [Example 85, [2-(3-Chloro-phenoxy)-5-fluoro-pyridin-3-yl]-(6,7-difluoro-3,4-dihydro-2H-quinolin-1-yl)-methanone]"
8,96 nM,"O=C(c1cc(F)cnc1Oc1ccc(F)c(Cl)c1)N1CCCc2ccccc21 [Example 86, [2-(3-Chloro-4-fluoro-phenoxy)-5-fluoro-pyridin-3-yl]-(3,4-dihydro-2H-quinolin-1-yl)-methanone]"
9,75 nM,"O=C(c1cc(F)cnc1Oc1ccc(F)c(Cl)c1)N1CCCc2cc(F)c(F)cc21 [Example 87, [2-(3-Chloro-4-fluoro-phenoxy)-5-fluoro-pyridin-3-yl]-(6,7-difluoro-3,4-dihydro-2H-quinolin-1-yl)-methanone]"
10,950 nM,"Cc1cccc2c1N(C(=O)c1cc(F)cnc1Oc1ccc(F)c(Cl)c1)CCC2 [Example 88, [2-(3-Chloro-4-fluoro-phenoxy)-5-fluoro-pyridin-3-yl]-(8-methyl-3,4-dihydro-2H-quinolin-1-yl)-methanone]"
11,7 nM,"O=C(c1ccncc1Oc1cc(Cl)ccc1Cl)N1CCCc2ccccc21 [Example 89, [3-(2,5-Dichloro-phenoxy)-pyridin-4-yl]-(3,4-dihydro-2H-quinolin-1-yl)-methanone]"
12,19 nM,"O=C(c1ccncc1Oc1cc(Cl)ccc1Cl)N1CCCc2ccc(F)cc21 [Example 90, [3-(2,5-Dichloro-phenoxy)-pyridin-4-yl]-(7-fluoro-3,4-dihydro-2H-quinolin-1-yl)-methanone]"
13,15 nM,"O=C(c1ccncc1Oc1cc(Cl)ccc1Cl)N1CCCc2cc(F)ccc21 [Example 91, [3-(2,5-Dichloro-phenoxy)-pyridin-4-yl]-(6-fluoro-3,4-dihydro-2H-quinolin-1-yl)-methanone]"
14,7 nM,"O=C(c1ccncc1Oc1cc(Cl)ccc1Cl)N1CCCc2cc(F)cc(F)c21 [Example 92, [3-(2,5-Dichloro-phenoxy)-pyridin-4-yl]-(6,8-difluoro-3,4-dihydro-2H-quinolin-1-yl)-methanone]"
15,57 nM,"Cc1ccccc1N(C)C(=O)c1ccncc1Oc1cc(Cl)ccc1Cl [Example 93, 3-(2,5-Dichloro-phenoxy)-N-methyl-N-o-tolyl-isonicotinamide]"
16,157 nM,"CN(C(=O)c1ccncc1Oc1cc(Cl)ccc1Cl)c1ccccc1Cl [Example 94, N-(2-Chloro-phenyl)-3-(2,5-dichloro-phenoxy)-N-methyl-isonicotinamide]"
